Reference: patent US20060205743A1, “Protein kinase inhibitors” (priority 2003, published 2006)

Target: MAPKAP-K2 (Homo sapiens, UniProt P49137)
Assay: MAPKAP-Kinase 2 Assay (33P-ATP peptide phosphorylation, filter plate)
Format: biochemical
Set-up: key: +: active; ++: more active; +++: very active
Settings: assays conducted at typically 1-100 μM
Method: MAPKAP-Kinase 2 Assay [Compound Preparation]
Compounds are dissolved in DMSO at a concentration of 3 mM and stored in aliquots at −20° C. Compounds in DMSO from these stock aliquots are diluted in 30% DMSO to produce initial working stock solutions of 1 mM and 3 mM. Both of these stock solutions are then subjected to 1:10 serial dilutions in 30% DMSO in order to prepare 3000, 1000, 300, 100, 30, 10, 3, 1, 0.1, 0.01 μM stock solutions. 5 μl of each stock solution is used per 50 μl reaction to give final assay concentrations of 300, 100, 30, 10, 3, 1, 0.3, 0.1, 0.01, 0.001 μM.
The kinase reaction is conducted in a round-bottomed polypropylene 96-well plate. MAPKAP-K2 is diluted to 25 mU/μl in diluent buffer (50 mM Tris/HCl. pH7.5, 0.1 mM EGTA, 0.1% (v/v) β-mercaptoethanol, 1 mg/ml BSA). 5 μl compound or 30% DMSO is added to each well followed by 25 μl substrate cocktail (10 μM ATP, 30 μM peptide (KKLNRTLSVA), 0.5 μCi ^33P-γ-ATP in 50 mM Tris pH7.5, 0.1 mM EGTA, 10 mM Mg-acetate, 0.1% BME). The reaction is initiated with the addition of 20 μl enzyme solution per well or 20 μl diluent buffer without enzyme. The plate is shaken for 10 sec and then left at room temperature for 30 min. The reaction is terminated with 50 μl 150 mM phosphoric acid. 90 μl of the reaction mixture is then transferred into a 96-well P81 filter plate (Millipore) and incubated at room temperature for 5 min. The filter plate is then washed 4 times with 200 μl 75 mM phosphoric acid per well on a plate vacuum manifold (Millipore) and dried in an oven for 2-3 h. Packard MicroScint ‘0’ (30 μl) is then added to each well, the plate is mixed for 30 min and subjected to liquid scintillation counting on a Packard TopCount.
[Interpretation] %Control=(X−B)/(Tot−B)×100 %Inhibition=100−% Control X=cpm of the test compound wells B=cpm of wells without enzyme Tot=cpm of wells with DMSO vehicle only

Sequence of MAPKAP-K2 (P49137 whole entry): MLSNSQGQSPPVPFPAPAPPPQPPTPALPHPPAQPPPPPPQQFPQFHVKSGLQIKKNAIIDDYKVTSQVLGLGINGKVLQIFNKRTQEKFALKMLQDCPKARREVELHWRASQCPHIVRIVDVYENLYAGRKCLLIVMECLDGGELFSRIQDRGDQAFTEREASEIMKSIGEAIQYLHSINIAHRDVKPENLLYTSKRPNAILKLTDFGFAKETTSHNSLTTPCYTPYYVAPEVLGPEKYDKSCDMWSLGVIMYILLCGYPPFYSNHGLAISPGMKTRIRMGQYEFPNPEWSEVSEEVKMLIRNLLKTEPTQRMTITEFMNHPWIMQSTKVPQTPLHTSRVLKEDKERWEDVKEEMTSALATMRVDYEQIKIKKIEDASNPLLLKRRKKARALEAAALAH

MAPKAP-K2 activity | SMILES
++ | N[C@H]1CC[C@H](Nc2cc(NCc3ccc(F)c(Cl)c3)n3nccc3n2)CC1 [Compound 1]
+++ | N[C@H]1CC[C@H](Nc2cc(Nc3ccc(F)c(Cl)c3)n3nccc3n2)CC1 [Compound 2]
+++ | N[C@H]1CC[C@H](Nc2cc(Nc3ccc(Cl)c(Cl)c3)n3nccc3n2)CC1 [Compound 3]
++ | N[C@H]1CC[C@H](Nc2cc(Nc3ccc4c(c3)OC(F)(F)O4)n3nccc3n2)CC1 [Compound 4]
+++ | COc1ccc(Nc2cc(N[C@H]3CC[C@H](N)CC3)nc3ccnn23)cc1Cl [Compound 5]
+++ | Cc1ccc(Nc2cc(N[C@H]3CC[C@H](N)CC3)nc3ccnn23)cc1Cl [Compound 6]
++ | Cc1ccsc1CNc1cc(N[C@H]2CC[C@H](N)CC2)nc2ccnn12 [Compound 7]
++ | N[C@H]1CC[C@H](Nc2cc(NCc3cccc(Cl)c3)n3nccc3n2)CC1 [Compound 8]
+++ | Cc1ccccc1Nc1cc(N[C@H]2CC[C@H](N)CC2)nc2ccnn12 [Compound 9]
+++ | N[C@H]1CC[C@H](Nc2cc(Nc3ccccc3)n3nccc3n2)CC1 [Compound 10]
+++ | N[C@H]1CC[C@H](Nc2cc(Nc3cccc(Cl)c3)n3nccc3n2)CC1 [Compound 11]
+++ | N[C@H]1CC[C@H](Nc2cc(Nc3ccc(Cl)cc3)n3nccc3n2)CC1 [Compound 12]
+++ | N[C@H]1CC[C@H](Nc2cc(Nc3ccccc3Cl)n3nccc3n2)CC1 [Compound 13]
++ | N[C@H]1CC[C@H](Nc2cc(NCc3ccc(Cl)cc3)n3nccc3n2)CC1 [Compound 14]
+++ | CN(C)c1ccc(Nc2cc(N[C@H]3CC[C@H](N)CC3)nc3ccnn23)cc1 [Compound 15]
+++ | N[C@H]1CC[C@H](Nc2cc(Nc3ccc(F)cc3)n3nccc3n2)CC1 [Compound 16]
+++ | COc1ccc(Nc2cc(N[C@H]3CC[C@H](N)CC3)nc3ccnn23)cc1 [Compound 17]
+ | N[C@H]1CC[C@H](Nc2cc(Nc3ccc(F)c(Cl)c3)n3nccc3n2)CC1 [Compound 18]
+++ | CN(C)c1cccc(Nc2cc(N[C@H]3CC[C@H](N)CC3)nc3ccnn23)c1 [Compound 19]
+++ | N[C@H]1CC[C@H](Nc2cc(Nc3ccc(C(F)(F)F)cc3)n3nccc3n2)CC1 [Compound 20]

MAPKAP-K2 activity | SMILES
+++ | N[C@H]1CC[C@H](Nc2cc(Nc3ccc(Oc4ccccc4)cc3)n3nccc3n2)CC1 [Compound 21]
+++ | N[C@H]1CC[C@H](Nc2cc(Nc3ccc(F)cc3F)n3nccc3n2)CC1 [Compound 22]
+ | CC(Nc1cc(N[C@H]2CC[C@H](N)CC2)nc2ccnn12)c1ccccc1 (stereo partly drawn) [Compound 23]
+ | CC(Nc1cc(N[C@H]2CC[C@H](N)CC2)nc2ccnn12)c1ccc(F)cc1 (stereo partly drawn) [Compound 24]
+ | CC(=O)NC1CCC(Nc2cc(Nc3ccc(F)c(Cl)c3)n3nccc3n2)CC1 (stereo not drawn) [Compound 25]
+++ | CSc1ccc(Nc2cc(N[C@H]3CC[C@H](N)CC3)nc3ccnn23)cc1 [Compound 26]
+ | CS(=O)(=O)NC1CCC(Nc2cc(Nc3ccc(F)c(Cl)c3)n3nccc3n2)CC1 (stereo not drawn) [Compound 27]
+ | O=C(NC1CCC(Nc2cc(Nc3ccc(F)c(Cl)c3)n3nccc3n2)CC1)c1ccccc1 (stereo not drawn) [Compound 28]
++ | NC1CCC(Nc2cc(NCCc3ccccc3)n3nccc3n2)CC1 (stereo not drawn) [Compound 29]
+ | NC1CCC(Nc2cc(NCCOc3ccccc3)n3nccc3n2)CC1 (stereo not drawn) [Compound 31]
+++ | N#Cc1cccc(Nc2cc(NC3CCC(N)CC3)nc3ccnn23)c1 (stereo not drawn) [Compound 32]
++ | CC(C)(C)c1ccc(Nc2cc(NC3CCC(N)CC3)nc3ccnn23)cc1 (stereo not drawn) [Compound 34]
+++ | CCOc1ccc(Nc2cc(NC3CCC(N)CC3)nc3ccnn23)cc1 (stereo not drawn) [Compound 35]
+++ | CCCc1ccc(Nc2cc(NC3CCC(N)CC3)nc3ccnn23)cc1 (stereo not drawn) [Compound 36]
+++ | CC(C)c1ccc(Nc2cc(NC3CCC(N)CC3)nc3ccnn23)cc1 (stereo not drawn) [Compound 37]
+ | CNC(=O)NC1CCC(Nc2cc(Nc3ccc(F)c(Cl)c3)n3nccc3n2)CC1 (stereo not drawn) [Compound 38]
++ | NC1CCC(Nc2cc(NCc3ccc(Cl)c(Cl)c3)n3nccc3n2)CC1 (stereo not drawn) [Compound 39]
+++ | NC1CCC(Nc2cc(Nc3cccc(I)c3)n3nccc3n2)CC1 (stereo not drawn) [Compound 40]
+++ | NC1CCC(Nc2cc(Nc3ccc(Oc4ccc(Cl)cc4)cc3)n3nccc3n2)CC1 (stereo not drawn) [Compound 41]
+++ | NC1CCC(Nc2cc(Nc3ccc(Oc4cccc(C(F)(F)F)c4)cc3)n3nccc3n2)CC1 (stereo not drawn) [Compound 42]

MAPKAP-K2 activity | SMILES
+++ | Cc1ccc(Nc2cc(NC3CCC(N)CC3)nc3ccnn23)cc1C (stereo not drawn) [Compound 43]
+++ | Cc1cccc(Nc2cc(NC3CCC(N)CC3)nc3ccnn23)c1 (stereo not drawn) [Compound 44]
++ | Cc1cccc(C)c1Nc1cc(NC2CCC(N)CC2)nc2ccnn12 (stereo not drawn) [Compound 45]
+++ | NC1CCC(Nc2cc(Nc3cccc(Oc4ccccc4)c3)n3nccc3n2)CC1 (stereo not drawn) [Compound 46]
++ | COc1ccccc1Nc1cc(NC2CCC(N)CC2)nc2ccnn12 (stereo not drawn) [Compound 47]
++ | C=CCNc1cc(NC2CCC(N)CC2)nc2ccnn12 (stereo not drawn) [Compound 48]
+ | O=C(Nc1ccccc1)NC1CCC(Nc2cc(Nc3ccc(F)c(Cl)c3)n3nccc3n2)CC1 (stereo not drawn) [Compound 49]
+ | CN1CCN(Nc2cc(Nc3ccc(F)c(Cl)c3)n3nccc3n2)CC1 [Compound 50]
+++ | NC1CCC(Nc2cc(Nc3ccc4c(c3)OCO4)n3nccc3n2)CC1 (stereo not drawn) [Compound 51]
+++ | NC1CCC(Nc2cc(Nc3ccc(OCc4ccccc4)cc3)n3nccc3n2)CC1 (stereo not drawn) [Compound 52]
++ | NC1CCC(Nc2cc(NCc3cccc(I)c3)n3nccc3n2)CC1 (stereo not drawn) [Compound 53]
++ | CCOc1ccccc1Nc1cc(NC2CCC(N)CC2)nc2ccnn12 (stereo not drawn) [Compound 54]
++ | NC1CCC(Nc2cc(Nc3ccc4c(c3)OC(F)(F)O4)n3nccc3n2)CC1 (stereo not drawn) [Compound 55]
++ | CN1CCC(Nc2cc(Nc3ccc(F)c(Cl)c3)n3nccc3n2)CC1 [Compound 56]
+ | CNC(=S)N[C@H]1CC[C@H](Nc2cc(Nc3ccc(F)c(Cl)c3)n3nccc3n2)CC1 [Compound 57]
+++ | C=C(C)CNc1cc(NC2CCC(N)CC2)nc2ccnn12 (stereo not drawn) [Compound 58]
+++ | C#CCNc1cc(NC2CCC(N)CC2)nc2ccnn12 (stereo not drawn) [Compound 59]
+++ | N[C@H]1CC[C@H](Nc2cc(Nc3ccc(Cl)cc3Cl)n3nccc3n2)CC1 [Compound 60]
+ | NC1CCCC(Nc2cc(Nc3ccc(F)c(Cl)c3)n3nccc3n2)C1 (stereo not drawn) [Compound 61]
+++ | COc1cccc(Nc2cc(N[C@H]3CC[C@H](N)CC3)nc3ccnn23)c1 [Compound 62]
